Measured values taken from the supplement of paper PMC10307832.

Tests used:
Assay in all cases: relative viability (nuclei count vs DMSO), 5 days (fraction); higher = more cells survive
QS11 + Pictilisib = compound: C1CC2=C(C1)C=C(C=C2)OC3=NC(=C4C(=N3)N(C=N4)CC5=CC=C(C=C5)C6=CC=CC=C6)N[C@@H](CC7=CC=CC=C7)CO [QS11] + CS(=O)(=O)N1CCN(Cc2cc3nc(-c4cccc5[nH]ncc45)nc(N4CCOCC4)c3s2)CC1 [Pictilisib] (partner 1 µM)
Outline: (§1)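 Medians of duplicate plates are given as relative viability. That measure is the nuclei count in treated wells divided by the count in vehicle wells. Counts were taken on 4× images of lung cancer cell lines in 1536-well plates, 5 days after pin-tool dosing the day after seeding with one drug alone or a fixed anchor-drug dose plus five library-drug doses (not always all listed) in √10 steps.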

QS11 + Palbociclib = compound: C1CC2=C(C1)C=C(C=C2)OC3=NC(=C4C(=N3)N(C=N4)CC5=CC=C(C=C5)C6=CC=CC=C6)N[C@@H](CC7=CC=CC=C7)CO [QS11] + CC(=O)c1c(C)c2cnc(Nc3ccc(N4CCNCC4)cn3)nc2n(C2CCCC2)c1=O [Palbociclib] (partner 0.5 µM)
Outline: as §1

AZ628 + Lapatinib = compound: CC1=C(C=C(C=C1)NC(=O)C2=CC(=CC=C2)C(C)(C)C#N)NC3=CC4=C(C=C3)N=CN(C4=O)C [AZ628] + CS(=O)(=O)CCNCc1ccc(-c2ccc3ncnc(Nc4ccc(OCc5cccc(F)c5)c(Cl)c4)c3c2)o1 [Lapatinib] (partner 2 µM)
Outline: as §1

AZ628 + Olaparib = compound: CC1=C(C=C(C=C1)NC(=O)C2=CC(=CC=C2)C(C)(C)C#N)NC3=CC4=C(C=C3)N=CN(C4=O)C [AZ628] + O=C(c1cc(Cc2n[nH]c(=O)c3ccccc23)ccc1F)N1CCN(C(=O)C2CC2)CC1 [Olaparib] (partner 8 µM)
Outline: as §1

Row | Cell Line | relative viability (QS11 + Pictilisib; first compound 0.08 µM) | relative viability (QS11 + Pictilisib; first compound 0.253 µM) | relative viability (QS11 + Pictilisib; first compound 0.8 µM) | relative viability (QS11 + Pictilisib; first compound 2.53 µM) | relative viability (QS11 + Pictilisib; first compound 8 µM) | relative viability (QS11 + Palbociclib; first compound 0.253 µM) | relative viability (QS11 + Palbociclib; first compound 0.8 µM) | relative viability (QS11 + Palbociclib; first compound 2.53 µM) | relative viability (QS11 + Palbociclib; first compound 8 µM) | relative viability (AZ628 + Lapatinib; first compound 0.08 µM) | relative viability (AZ628 + Lapatinib; first compound 0.253 µM) | relative viability (AZ628 + Lapatinib; first compound 0.8 µM) | relative viability (AZ628 + Lapatinib; first compound 2.53 µM) | relative viability (AZ628 + Lapatinib; first compound 8 µM) | relative viability (AZ628 + Olaparib; first compound 0.08 µM) | relative viability (AZ628 + Olaparib; first compound 0.253 µM) | relative viability (AZ628 + Olaparib; first compound 0.8 µM) | relative viability (AZ628 + Olaparib; first compound 2.53 µM) | relative viability (AZ628 + Olaparib; first compound 8 µM) | relative viability (QS11 + Palbociclib; first compound 0.08 µM)
1 | PC-14 | 0.658 | 0.639 | 0.667 | 0.569 | 0.604 | 0.608 | 0.455 | 0.44 | 0.434 | 0.347 | 0.365 | 0.351 | 0.313 | 0.343 | 0.376 | 0.258 | 0.243 | 0.259 | 0.16 | 
2 | EPLC-272H | 0.372 | 0.347 | 0.298 | 0.387 | 0.274 | 0.315 | 0.31 | 0.305 | 0.31 | 0.837 | 0.88 | 1.08 | 0.932 | 0.54 | 0.492 | 0.663 | 0.603 | 0.568 | 0.452 | 
3 | NCI-H2228 | 0.254 | 0.507 | 0.513 | 0.427 | 0.319 | 0.741 | 1.06 | 0.641 | 1.01 | 1.11 | 1.13 | 0.784 | 0.9 | 1.17 | 0.585 | 0.583 | 0.847 | 0.698 | 0.541 | 0.753
4 | LC-2-ad | 0.506 | 0.478 | 0.441 | 0.534 | 0.547 | 0.47 | 0.405 | 0.451 | 0.501 | 0.949 | 0.867 | 0.446 | 0.72 | 0.474 | 0.712 | 0.646 | 0.823 | 0.736 | 0.681 | 0.512
5 | HOP-62 | 0.822 | 0.688 | 0.738 | 0.514 | 0.435 | 0.517 | 0.455 | 0.369 | 0.281 | 1.12 | 0.978 | 1.01 | 0.957 | 0.631 | 0.543 | 0.359 | 0.633 | 0.68 | 0.39 | 0.471
6 | UMC-11 | 0.748 | 0.844 | 0.899 | 0.901 | 1.12 | 0.343 | 0.378 | 0.343 | 0.337 | 1.05 | 0.903 | 0.95 | 0.9 | 0.968 | 0.393 | 0.357 | 0.291 | 0.344 | 0.331 | 0.307
7 | Calu-6 | 1.02 | 0.907 | 0.918 | 1.15 | 1 |  |  |  |  | 1.2 | 0.981 | 0.629 | 0.844 | 0.222 | 0.595 | 0.491 | 0.496 | 0.41 | 0.16 | 
8 | HCC-44 | 0.804 | 0.432 | 0.565 | 0.406 | 0.431 | 0.998 | 0.732 | 0.901 | 0.866 | 0.982 | 1.06 | 1.01 | 1.02 | 0.844 | 1.01 | 0.999 | 0.977 | 0.972 | 0.974 | 1.07
9 | NCI-H727 | 0.355 | 0.304 | 0.407 | 0.279 | 0.229 | 0.73 | 0.698 | 0.637 | 0.699 | 0.484 | 0.472 | 0.415 | 0.326 | 0.296 | 0.603 |  |  | 0.506 | 0.333 | 0.694
10 | A-427 | 0.546 | 0.788 |  | 0.608 | 0.824 | 0.582 |  | 0.551 | 0.574 | 1.1 | 0.599 | 0.99 | 1.06 | 0.773 | 0.85 | 0.73 | 0.773 | 0.691 | 0.541 | 0.553
11 | SK-MES-1 | 0.379 | 0.315 | 0.381 | 0.306 | 0.311 | 0.285 | 0.268 | 0.311 | 0.295 | 0.475 | 0.501 | 0.479 | 0.473 | 0.437 | 0.693 | 0.824 | 0.9 | 0.737 | 0.392 | 0.322
12 | HCC-827 | 0.881 | 1.03 | 0.953 | 1.13 | 0.95 | 0.501 | 0.445 | 0.599 | 0.479 | 0.238 | 0.172 | 0.208 | 0.191 | 0.191 | 0.652 | 0.621 | 0.704 | 0.661 | 0.528 | 0.527
13 | EKVX | 0.444 | 0.379 |  | 0.413 | 0.467 | 0.375 | 0.33 | 0.284 | 0.391 | 0.232 | 0.206 | 0.216 | 0.219 | 0.257 | 0.926 | 0.768 | 0.947 | 0.914 | 0.79 | 0.401
14 | SW 900 |  |  |  |  |  | 0.593 | 0.456 | 0.481 | 0.425 |  |  |  |  |  | 1.04 | 0.878 | 1.02 | 0.951 | 0.683 | 0.588
